Data as given in ChEMBL document CHEMBL5126578, “Organocatalyzed umpolung addition for synthesis of heterocyclic-fused arylidene-imidazolones as anticancer agents” (Bioorg Med Chem, 2022).
Activity calls are given as the source filed them. No cut-off for these calls is given here.

Assays:
MCF7 [1] = experiment: Antiproliferative activity against human MCF7 cells assessed as reduction in cell viability incubated for 48 hrs by MTT assay; format: functional, cell-based; details: MCF7, 48 h
[2] = target: Epidermal growth factor receptor (Homo sapiens, UniProt P00533); experiment: Inhibition of EGFR (unknown origin) assessed as kinase activity by measuring ATP remaining for 40 mins in presence of ATP by Kinase-Glo Plus luminescence kinase assay
Epidermal growth factor receptor, sequence (P00533 whole entry): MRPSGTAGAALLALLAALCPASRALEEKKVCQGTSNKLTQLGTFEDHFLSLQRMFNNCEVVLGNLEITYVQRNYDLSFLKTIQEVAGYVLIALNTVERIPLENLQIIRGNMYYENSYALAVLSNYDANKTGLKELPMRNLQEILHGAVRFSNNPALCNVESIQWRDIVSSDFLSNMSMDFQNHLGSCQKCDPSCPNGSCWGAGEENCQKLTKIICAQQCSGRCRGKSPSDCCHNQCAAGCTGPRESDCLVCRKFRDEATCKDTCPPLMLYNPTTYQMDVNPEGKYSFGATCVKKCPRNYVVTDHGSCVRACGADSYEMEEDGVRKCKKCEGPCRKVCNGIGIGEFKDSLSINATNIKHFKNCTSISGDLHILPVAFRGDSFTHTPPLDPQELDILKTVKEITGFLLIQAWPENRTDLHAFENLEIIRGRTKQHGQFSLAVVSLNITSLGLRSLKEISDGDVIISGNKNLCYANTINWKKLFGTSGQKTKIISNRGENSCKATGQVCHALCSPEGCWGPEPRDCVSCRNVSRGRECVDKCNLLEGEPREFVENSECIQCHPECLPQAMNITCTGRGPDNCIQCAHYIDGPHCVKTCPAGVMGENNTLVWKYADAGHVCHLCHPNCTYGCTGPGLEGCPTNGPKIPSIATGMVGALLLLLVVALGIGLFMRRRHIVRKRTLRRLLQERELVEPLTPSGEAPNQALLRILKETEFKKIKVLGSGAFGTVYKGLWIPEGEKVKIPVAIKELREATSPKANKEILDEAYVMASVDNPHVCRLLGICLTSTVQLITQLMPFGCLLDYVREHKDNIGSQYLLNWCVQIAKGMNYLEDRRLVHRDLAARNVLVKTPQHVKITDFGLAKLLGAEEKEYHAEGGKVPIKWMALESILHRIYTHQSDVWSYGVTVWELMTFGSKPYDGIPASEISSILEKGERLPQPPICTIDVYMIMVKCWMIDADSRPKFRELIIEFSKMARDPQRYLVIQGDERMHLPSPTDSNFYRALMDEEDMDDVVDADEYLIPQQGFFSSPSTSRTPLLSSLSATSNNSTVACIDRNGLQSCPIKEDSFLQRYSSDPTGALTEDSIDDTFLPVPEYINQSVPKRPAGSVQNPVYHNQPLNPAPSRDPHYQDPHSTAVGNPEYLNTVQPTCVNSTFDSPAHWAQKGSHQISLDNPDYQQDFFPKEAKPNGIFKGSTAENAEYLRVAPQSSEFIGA

HeLa = experiment: Antiproliferative activity against human HeLa cells for 24 hrs by MTT assay; format: functional, cell-based
MCF7 [3] = experiment: Induction of apoptosis in human MCF7 cells assessed as fold change as decrease in BCL-XL protein expression level at 5 uM by Western blot analysis; format: functional
MCF7 [4] = experiment: Induction of apoptosis in human MCF7 cells assessed as fold change as increase in Bax protein expression level at 5 uM by Western blot analysis; format: functional
MCF7 [5] = experiment: Induction of apoptosis in human MCF7 cells assessed as fold change as decrease in BCL-XL protein expression level at 3.8 uM by Western blot analysis; format: functional
MCF7 [6] = experiment: Induction of cell cycle arrest in human MCF7 cells assessed as accumulation at S phase at 3.8 uM for 48 hrs by PI staining based flow cytometry (Rvb=4.6%); format: functional
[7] = Antiproliferative activity against human H357 cells assessed as reduction in cell viability for 48 hrs by MTT assay; format: functional, cell-based; details: H357, 48 h
HEK-293T = experiment: Antiproliferative activity against human HEK293T cells assessed as reduction in cell viability for 48 hrs by MTT assay; format: functional, cell-based
MCF7 [8] = experiment: Induction of cell cycle arrest in human MCF7 cells assessed as accumulation at Sub-G1 phase at 3.8 uM for 48 hrs by PI staining based flow cytometry (Rvb= 0.9%); format: functional
MCF7 [9] = experiment: Induction of apoptosis in human MCF7 cells assessed as upregulation of Caspase-3 expression level at 3.8 to 5 uM by TRIT-C staining based fluorescence microscopy; format: functional, cell-based; details: dose 3.8-5 µM
MCF7 [10] = experiment: Induction of cell cycle arrest in human MCF7 cells assessed as accumulation at G1 phase at 3.8 uM for 48 hrs by PI staining based flow cytometry (Rvb= 73.1%); format: functional
MDA-MB-231 [11] = experiment: Antiproliferative activity against human MDA-MB-231 cells assessed as reduction in cell viability for 48 hrs by MTT assay; format: functional, cell-based; details: MDA-MB-231, 48 h
MCF7 [12] = experiment: Induction of apoptosis in human MCF7 cells assessed as increase in number of apoptotic nuclei at 3.8 to 5 uM for 48 hrs by DAPI staining based fluorescence microscopy; format: functional, cell-based; details: dose 3.8-5 µM
MCF7 [13] = experiment: Inhibition of human DNA topoisomerase activity in human MCF cells nuclear lysate assessed mediated supercoiled plasmid DNA relaxation by analyzing migration of supercoiled DNA at 1 uM by agarose gel electrophoresis; format: subcellular
MCF7 [14] = experiment: Induction of cell cycle arrest in human MCF7 cells assessed as accumulation at G2/M phase at 3.8 uM for 48 hrs by PI staining based flow cytometry (Rvb= 21.4%); format: functional
[15] = Cytotoxicity against human MCF-10A cells assessed as reduction in cell viability for 48 hrs by MTT assay; format: toxicity, cell-based
MCF7 [16] = experiment: Induction of apoptosis in human MCF7 cells assessed as fold change as increase in Bax protein expression level at 3.8 uM by Western blot analysis; format: functional
MDA-MB-231 [17] = experiment: Antiproliferative activity against human MDA-MB-231 cells for 48 hrs by MTT assay; format: functional, cell-based; details: MDA-MB-231, 48 h
MCF7 [18] = experiment: Inhibition of human DNA topoisomerase activity in human MCF cells nuclear lysate assessed mediated supercoiled plasmid DNA relaxation by analyzing migration of supercoiled DNA at 0.9 uM by agarose gel electrophoresis; format: subcellular
MCF7 [19] = experiment: Induction of cell cycle arrest in human MCF7 cells assessed as accumulation at G1 phase at 4.2 uM for 48 hrs by PI staining based flow cytometry (Rvb= 73.1%); format: functional
MCF7 [20] = experiment: Induction of apoptosis in human MCF7 cells assessed as fold change as decrease in BCL-XL protein expression level at 4.2 uM by Western blot analysis; format: functional
MCF7 [21] = experiment: Induction of cell cycle arrest in human MCF7 cells assessed as accumulation at G2/M phase at 4.2 uM for 48 hrs by PI staining based flow cytometry (Rvb= 21.4%); format: functional
MCF7 [22] = experiment: Induction of cell cycle arrest in human MCF7 cells assessed as accumulation at S phase at 4.2 uM for 48 hrs by PI staining based flow cytometry(Rvb= 4.6%); format: functional
MCF7 [23] = experiment: Induction of cell cycle arrest in human MCF7 cells assessed as accumulation at Sub-G1 phase at 4.2 uM for 48 hrs by PI staining based flow cytometry (Rvb= 0.9%); format: functional
MCF7 [24] = experiment: Induction of apoptosis in human MCF7 cells assessed as increase in number of apoptotic nuclei at 4.2 to 5.5 uM for 48 hrs by DAPI staining based fluorescence microscopy; format: functional, cell-based; details: dose 4.2-5.5 µM
MCF7 [25] = experiment: Induction of apoptosis in human MCF7 cells assessed as fold change as increase in Bax protein expression level at 5.5 uM by Western blot analysis; format: functional
MCF7 [26] = experiment: Induction of apoptosis in human MCF7 cells assessed as fold change as decrease in BCL-XL protein expression level at 5.5 uM by Western blot analysis; format: functional
MCF7 [27] = experiment: Induction of apoptosis in human MCF7 cells assessed as upregulation of Caspase-3 expression level at 4.2 to 5.5 uM by TRIT-C staining based fluorescence microscopy; format: functional, cell-based; details: dose 4.2-5.5 µM
MCF7 [28] = experiment: Induction of apoptosis in human MCF7 cells assessed as fold change as increase in Bax protein expression level at 4.2 uM by Western blot analysis; format: functional
[29] = Antiproliferative activity against VEGF-stimulated human Endothelial cells pre-incubated for 2 hrs followed by stimulation with human VEGF, bFGF and FBS for 18 hrs and measured after 28 hrs by AlamarBlue assay; format: functional, cell-based; details: Endothelial cell
MCF7 [30] = experiment: Inhibition of human DNA topoisomerase activity in human MCF cells nuclear lysate assessed mediated supercoiled plasmid DNA relaxation by analyzing migration of supercoiled DNA at 0.5 uM by agarose gel electrophoresis; format: subcellular

COC1=CC(OC)=NC2=N/C(=C\c3ccccc3)C(=O)N12
IC50 (MCF7 [1]): 9.7 µM

O=C(Cc1csc2nc3ccccc3n12)Nc1cccc(O)c1
IC50 [2]: 55 µM | IC50 (HeLa): 420 nM

O=C1/C(=C/c2ccccc2)N=C2Sc3cccc(O)c3N12
fold change (FC) (MCF7 [3]): 10 | fold change (FC) (MCF7 [4]): 5 | fold change (FC) (MCF7 [5]): 2 | Activity (MCF7 [6]): 36.4% | IC50 [7]: 4.8 µM | IC50 (HEK-293T): 4.2 µM | Activity (MCF7 [8]): 8.9% | IC50 (MCF7 [1]): 3.8 µM | Activity (MCF7 [9]): Active | Activity (MCF7 [10]): 37.5% | IC50 (MDA-MB-231 [11]): 4 µM | Activity (MCF7 [12]): Active | inhibition (MCF7 [13]): Active | Activity (MCF7 [14]): 17.2% | IC50 at 48 h [15]: 35 µM | fold change (FC) (MCF7 [16]): 2

COc1ccc(/C=C2\N=C3Sc4cccc(OC)c4N3C2=O)cc1
IC50 (MCF7 [1]): 7.8 µM

COc1ccc2c(c1)sc1nc(/C=C/C(=O)c3ccc(OC)c(O)c3)cn12
IC50 (MDA-MB-231 [17]): 1200 nM

O=C1/C(=C/c2ccc(Cl)cc2)N=C2Sc3cccc(O)c3N12
inhibition (MCF7 [18]): Active | Activity (MCF7 [19]): 61.3% | fold change (FC) (MCF7 [20]): 2.5 | Activity (MCF7 [21]): 9.6% | Activity (MCF7 [22]): 24.8% | IC50 [7]: 5 µM | Activity (MCF7 [23]): 4.3% | IC50 (HEK-293T): 5.8 µM | IC50 (MCF7 [1]): 4.2 µM | Activity (MCF7 [24]): Active | IC50 (MDA-MB-231 [11]): 5.4 µM | fold change (FC) (MCF7 [25]): 6 | fold change (FC) (MCF7 [26]): 10 | Activity (MCF7 [27]): Active | IC50 at 48 h [15]: 40 µM | fold change (FC) (MCF7 [28]): 3.5

COc1cccc2c1N1C(=O)/C(=C/c3ccccc3)N=C1S2
IC50 (MCF7 [1]): 4.5 µM

CC1=CC=CN2C(=O)/C(=C/c3ccccc3)N=C12
IC50 (MCF7 [1]): 9.8 µM

Cc1cccc2c1N1C(=O)/C(=C/c3ccccc3)N=C1S2
IC50 (MCF7 [1]): 9.8 µM

O=C1/C(=C/c2ccccc2)N=C2C=CC([N+](=O)[O-])=CN12
IC50 (MCF7 [1]): 9 µM

O=C1/C(=C/c2ccc(Cl)cc2)N=C2C(O)=CC=CN12
IC50 (MCF7 [1]): 5.2 µM

O=C1/C(=C/c2ccccc2)N=C2N=CC=CN12
IC50 (MCF7 [1]): 9.9 µM

O=C1/C(=C/c2ccccc2)N=C2Sc3cc(Br)ccc3N12
IC50 (MCF7 [1]): 9.7 µM

O=C1/C(=C/c2ccccc2)N=C2C([N+](=O)[O-])=CC(Br)=CN12
IC50 (MCF7 [1]): 10 µM

CCN(CC)CCOc1cccc(-c2cn3c(n2)sc2ccccc23)c1
IC50 [29]: 3.9 nM

O=C1/C(=C/c2ccccc2)N=C2C(O)=CC=CN12
IC50 (MCF7 [1]): 9.7 µM

O=C1/C(=C/c2ccccc2)N=C2C=C(O)C=CN12
IC50 (MCF7 [1]): 9.2 µM

O=C1/C(=C/c2ccccc2)N=C2C=CC=CN12
IC50 (MCF7 [1]): 9.8 µM

O=C(Cc1csc2nc3ccccc3n12)Nc1cccc2ccccc12
IC50 [2]: 55 µM | IC50 (HeLa): 420 nM

COc1cc([C@@H]2c3cc4c(cc3[C@@H](O[C@@H]3O[C@@H]5CO[C@@H](C)O[C@H]5[C@H](O)[C@H]3O)[C@H]3COC(=O)[C@H]23)OCO4)cc(OC)c1O [ETOPOSIDE]
inhibition (MCF7 [30]): Active | IC50 [7]: 32 µM | IC50 (HEK-293T): 28 µM | IC50 at 48 h [15]: 102 µM

COc1ccc2c(c1)SC1=N/C(=C\c3ccccc3)C(=O)N12
IC50 (MCF7 [1]): 10 µM

COc1ccc(/C=C2\N=C3C(O)=CC=CN3C2=O)cc1
IC50 (MCF7 [1]): 10 µM

COc1ccc(/C=C2\N=C3Sc4cccc(O)c4N3C2=O)cc1
IC50 (MCF7 [1]): 7.5 µM

COC1=CC2=N/C(=C\c3cc(OC)c(OC)c(OC)c3)C(=O)N2C=C1
IC50 (MCF7 [1]): 10 µM

CC1=CN2C(=O)/C(=C/c3ccccc3)N=C2C=C1
IC50 (MCF7 [1]): 10 µM

O=C1/C(=C/c2ccccc2)N=C2C(Br)=CC(Br)=CN12
IC50 (MCF7 [1]): 10 µM

CCOC(=O)Oc1c(OC)cc(/C=C2\N=C3C=C(OC)C=CN3C2=O)cc1OC
IC50 (MCF7 [1]): 8.9 µM

O=C1/C(=C/c2ccccc2)N=C2Sc3ccccc3N12
IC50 (MCF7 [1]): 9.4 µM

COC1=CC2=N/C(=C\c3ccccc3)C(=O)N2C=C1
IC50 (MCF7 [1]): 9.9 µM

COC1=CC2=N/C(=C\c3ccc(OC)cc3)C(=O)N2C=C1
IC50 (MCF7 [1]): 9.8 µM
